The subject of series [1] is NF-κB signaling pathway. Briefly: NF-κB luciferase reporter assay in 293T cells. The settings on record: TNF-α 10 ng/mL, 6 h, SIAIS361034 10 μM, BAY 11-7082 20 μM. It counts as cell-based. The method, then: (§1) Cells seeded in 96-well plates were treated with various treatments as indicated. The luciferase activity in the cell lysates was measured using Dual-Luciferase Reporter Assay System (Promega, Madison, WI, USA) according to the manufacturer's instructions in a luminometer (Molecular Devices, Sunnyvale, CA). The firefly luciferase values were normalized to Renilla values. […]
Data represent mean ± SD (n = 3). (B) NF-κB luciferase analysis of the effect of SIAIS361034 on NF-κB signaling pathway in 293T cells.The 293T cells were transfected with NF-κB luciferase reporter and Renilla-TK plasmids and […]
μM) for 6 h. Data represent mean ± SD (n = 3). […]
(§2) Data represent mean ± SD (n = 3).
(§3) (1 picture or pasted object on this page, not shown here)

The test system of series [2] is Wnt signaling pathway. Nature of the series: TCF/LEF luciferase reporter assay in LS174T cells. It counts as cell-based. The following applies: PGE2 1 μM, 24 h, SIAIS361034 10 μM, H-89 20 μM. As to the method: as §1
μM) for 6 h. Data represent mean ± SD (n = 3). (C) TCF/LEF luciferase analysis of the effect of SIAIS361034 on Wnt signaling pathway in LS174T cells. The LS174T cellswere transfected with TCF/LEF luciferase reporter and Renilla-TK plasmids and […]
as §2, §3

For series [3], the target named is T1, Bcl-xL (Mus musculus, UniProt Q64373).
T1 construct: endogenous in cells; host or cells: NIH-3T3
T1 sequence (Q64373 whole entry): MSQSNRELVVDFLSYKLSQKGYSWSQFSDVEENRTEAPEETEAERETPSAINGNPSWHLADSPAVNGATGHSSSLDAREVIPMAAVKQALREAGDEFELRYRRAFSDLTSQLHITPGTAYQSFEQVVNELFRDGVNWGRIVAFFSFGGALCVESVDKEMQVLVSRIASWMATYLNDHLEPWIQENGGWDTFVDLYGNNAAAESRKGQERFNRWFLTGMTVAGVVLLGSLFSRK
Briefly: Western blot of Bcl-xL degradation in NIH-3T3 cells. It counts as cell-based. The settings on record: for effect of pretreatment on SIAIS361034-induced Bcl-xL degradation: pretreated 2 h with ABT-263 1 µM, Pomalidomide 10 µM or MG132 1 µM, then SIAIS361034 24 h. As to the method: (§4) Cells were lysed in cell lysis buffer (50 mM Tris pH 8.0, 150 mM NaCl, 10% glycerol, 1 mM EDTA, 50 mM NaF, and 0.1% NP-40) supplemented with protease and phosphatase inhibitors. Total protein extracts of tissues were generated in radioimmunoprecipitation (RIPA) assay lysis buffer containing complete protease and phosphatase inhibitor cocktail. Protein content was quantified using the Pierce BCA Protein Assay Kit (#23225, Thermo Fisher Scientific). The proteins were separated by SDS-PAGE, electrophoretically transferred to polyvinylidene difluoride (PVDF) blotting membranes (#LC2002, Thermo Fisher Scientific), and subjected to routine immunoblot analysis with primary antibodies as follows: anti-Bcl-2 (#15071), anti-Mcl-1 (#94296), anti-VHL (#68547), anti-CRBN (#71810), and anti-Sufu (#2522) were obtained from Cell Signaling Technology (Danvers, Massachusetts, USA); anti-Bcl-xL (#ab32370), anti-Gli1 (#ab134906), and anti-Smoothened (#ab236465) were obtained from Abcam (Cambridge, CB2 0AX, UK); anti-GAPDH (#60004-1-Ig) and anti-β-tubulin (#10094-1-AP) were purchased from Proteintech Group, Inc. (Rosemont, IL 60018, USA). The results were quantified by densitometry using ImageJ software (NIH).

In series [4] the test system is Hh pathway (Gli-luciferase) in light II cells. Briefly: Dual luciferase reporter assay, Gli-luciferase provoked by SAG in light II cells. It counts as cell-based. The settings on record: SAG 100 nM; for effect of pretreatment on Gli-luciferase activity suppressed by SIAIS361034: pretreated 2 h with MG132 1 µM or Pomalidomide 10 µM, then SIAIS361034 1 µM. As to the method:
(§5) Cells seeded in 96-well plates were treated with various treatments as indicated. The luciferase activity in the cell lysates was measured using Dual-Luciferase Reporter Assay System (Promega, Madison, WI, USA) according to the manufacturer's instructions in a luminometer (Molecular Devices, Sunnyvale, CA). The firefly luciferase values were normalized to Renilla values.

The test system of series [5] is Hh pathway (Gli-luciferase) provoked by Gli2. Nature of the series: Dual luciferase reporter assay, Hh activity initiated by ectopic Gli2-HA in light II cells. It counts as cell-based. The settings on record: for IC50: ectopic Gli2-HA, 36 h.
Source text: (§6) The TCF/LEF luciferase reporter plasmid, NF-κB luciferase reporter plasmid, and TK-Renilla luciferase plasmid were purchased from Promega (Madison, WI, USA). Smo plasmid was purchased from Origene (Rockville, MD, USA). The Smo mutant plasmids were generated from wild type Smo plasmid using QuickChange Site-Directed Mutagenesis kit from Agilent (Santa Clara, CA, USA) and confirmed by sequencing. Information on Smo mutants plasmids is provided in Supplementary data 2. The Gli1 plasmid and Gli2-HA plasmid were obtained from Addgene (Cambridge, MA, USA). Transient transfections were performed by Lipofectamine 2000 reagent from Invitrogen (Grand Island, NY, USA) according to the manufacturer's instructions.
as §5

The test system of series [6] is platelets. Nature of the series: Platelet toxicity assay in C57BL/6J mice. It counts as in vivo, mouse. The settings on record: SIAIS361034 single i.p. 50 and 100 mg/kg, ABT-263 single p.o. 100 mg/kg, 8 h and 24 h. An excerpt:
Blood was collected at different time points via retro-orbital bleeding in anticoagulation tube. Platelets or different blood cells were enumerated using BM800 blood analyzer (Bowlinman Sunshine).

For series [7], the system named is Hh pathway (Gli-luciferase) provoked by Smo WT / Smo mutants. Briefly: Dual luciferase reporter assay, Hh activity induced by ectopic Smo WT or Smo mutants in light II cells. In kind it is cell-based. The settings on record: Smo WT, D473H, H231R, W281C, W535L, L412F, F460L, GDC-0449 10 μM (Figure S3B-D).
Source text: as §6, §5

Series [8] relates to hair growth and Hh pathway activity in skin. Nature of the series: Depilatory mouse model. It counts as in vivo. The method, then: For Depilatory model studies, male C57BL/6J mice (7 to 8 weeks of age) were purchased from Shanghai Lingchang Biotechnology Co. (Shanghai, China). After 2 days of acclimation, only healthy mice were used in the experiment. The back skin of the anesthetized mice was shaved and depilated using the depilatory Nair (Church & Dwight Co., Inc.). After 4 days, the depilated mice were randomized into groups for treatments as indicated. The back skin phenotypes were recorded by taking pictures every 3 days. Skin tissues were harvested 6 h after the last dosage to examining Gli1 mRNA expression as well as Gli1 and Bcl-xL protein levels.

In series [9] the test system is SmoA1 (Smo W539L) medulloblastoma tumor. Nature of the series: SmoA1 medulloblastoma allograft in nude mice. It counts as in vivo, mouse. An excerpt: For in vivo SmoA1 MB allograft studies, SmoA1 spontaneous MB tumors were obtained from ND2:SmoA1 transgenic mice as previously described. Male nude mice (4 to 5 weeks of age) were purchased from Shanghai Lingchang Biotechnology Co. (Shanghai, China). Spontaneous tumors were harvested and subcutaneously allografted into nude mice. When the tumor volumes reached approximately 2000 mm^3, they were harvested and further subcutaneously allografted into nude mice. When the tumor volumes reached about 150 to 200 mm^3, the tumor-bearing mice were randomly assigned into vehicle and treatment groups. Mice were weighed every 3 days. Tumor size was measured once every 3 days using microcaliper. Tumor volume (V) was determined using the following formula: V = (L×W^2) ×0.5, where L is length, and W is width in mm. Tumor tissues were harvested 6 h after the last dosage to examining Gli1 mRNA expression and protein levels. SIAIS361034 for i.p. administration was formulated in 0.5% sodium carboxymethyl cellulose (CMC-Na). All in vivo studies above were approved by and conformed to the policies and regulations of the Animal Care and Use Committee of Fudan University, China.

Series [10] relates to bone growth of young mice. Briefly: Bone growth of young mice (body weight, Micro-CT, H&E, IHC). In kind it is in vivo, mouse. The settings on record: for body size: 5-week-old mice after treatment from P12 to P16; for femur length (Micro-CT, in words): mice at 6 weeks of age, treated P12 to P16; for levels of Bcl-xL in femurs (IHC): mice treated P12 to P16; for expression levels of Gli1 in femurs (IHC): mice treated P12 to P16, compared with Vehicle. The method, then:
Skeleton Micro-CT images of mice were taken under anesthesia. The femurs were fixed and stored in 4% PFA at 4 °C. Mice and femurs were scanned using Inveon PET-CT (Siemens). Bone tissues were computed with Inveon Acquisition Workplace (IAW). Image data were visualized and analyzed by Inveon Viewer.
Femurs were fixed in 4% PFA and decalcified in 14% EDTA for 2 weeks at 4 °C. Bone tissues were embedded in paraffin. Thin sections were stained with hematoxylin and eosin (H&E) according to the manufacturer's instructions. For immunohistochemistry (IHC), paraffin-embedded sections of femurs were baked at 60 °C for 20 min, deparaffinized by xylene for 25 min, rehydrated through ethanol series, and incubated with citrate buffer at 95 °C for 20 min for antigen retrieval. Sections were incubated with the primary antibodies as indicated overnight at 4 °C, followed by goat anti-rabbit secondary antibody. The primary antibodies used in this study include Bcl-xL (1:2000, ab178844, Abcam) and Gli1 (1:100, 101156-T10, Sino Biological).

In series [11] the test system is medulloblastoma sensitive to Smo inhibitors. Set-up: method as in PMID 19716296. The settings on record: GDC-0449 50 mg/kg; cited from earlier work.
Series [12] relates to Gli1. Nature of the series: Western blot of Gli1 in light II cells. In kind it is cell-based. The following applies: 1 µM. As to the method:
as §4

The values that follow come from PMC9691367, “The PROTAC selectively degrading Bcl-xL represents a novel Hedgehog pathway inhibitor with capacity of combating resistance to Smoothened inhibitors while sparing bone growth” (Theranostics, 2022).

Peptide text beside a SMILES is read from it. * marks the point of attachment. Cbz = O=C(OCc1ccccc1)* Some results are limits rather than exact numbers.

Take `Cc1ccc(S(=O)(=O)/C=C/C#N)cc1` [BAY 11-7082, reference compound]: in [1], the “NF-κB luciferase activity activated by TNF-α” value is recorded as “significantly impeded”.
For `O=S(=O)(NCCNC/C=C/c1ccc(Br)cc1)c1cccc2cnccc12` [H-89, reference compound], in series [2], the “TCF/LEF luciferase activity (Wnt signaling) activated by PGE2” value is on record as “significantly inhibited”.
On to `CN1C(=O)CCC(N2Cc3c(C#CCCCN4CCN(CCCNc5ccc(S(=O)(=O)NC(=O)c6ccc(N7CCN(CC8=C(c9ccc(Cl)cc9)CCC(C)(C)C8)CC7)cc6)cc5S(=O)(=O)C(F)(F)F)CC4)cccc3C2=O)C1=O` (centres unmarked) [SIAIS361034NC], for which the Bcl-xL degradation result in [3] (1 µM, western blot) is on record as “failed to degrade Bcl-xL”. The IC50 in [4] (36 h, read-out: IC50 value inhibiting the Gli-luciferase activity provoked by SAG) came to 3.16 µM; in series [5] it was 1.77 µM.
On to `CC1(C)CCC(c2ccc(Cl)cc2)=C(CN2CCN(c3ccc(C(=O)NS(=O)(=O)c4ccc(N[C@H](CCN5CCOCC5)CSc5ccccc5)c(S(=O)(=O)C(F)(F)F)c4)cc3)CC2)C1` [ABT-263, reference compound], for which the “effect of pretreatment on SIAIS361034-induced Bcl-xL degradation” value in series [3] was “abolished the SIAIS361034-induced Bcl-xL degradation”. In [6], the number of platelets entry is “severe thrombocytopenia”.
Regarding `CS(=O)(=O)c1ccc(C(=O)Nc2ccc(Cl)c(-c3ccccn3)c2)c(Cl)c1` [GDC-0449, reference compound], the “Hh activity provoked by wild type Smo and Smo mutants” value in [7] was “little appreciable effect”. In [5], the “Hh activity evoked by ectopic expression of Gli2” value is listed as “no effect” and the IC50 was > 10 µM. For the same compound, the “hair growth during depilation-induced hair regeneration” value in [8] (male C57BL/6J mice, administered after 4 days of depilation) was “significantly retarded hair growth”. The “Gli1 and Bcl-xL protein levels in skin tissues” value in series [8] (skin harvested 6 h after the last dosage, western blot) is given as “no effect on the levels of Bcl-xL”. The “growth of SmoA1 tumors” value in series [9] (nude mice, SIAIS361034 50 mg/kg, GDC-0449 50 mg/kg p.o.) is on record as “obvious resistance”. Besides, the “expression of Gli1 mRNA in tumor tissues” value in series [9] (tumors harvested 6 h after the last dosage, RT-qPCR) is “no alteration”. For the same compound, in [10], the body size result is given as “smaller body sizes”; the “femur length (Micro-CT, in words)” value was “obvious shortening of the femur”; the “levels of Bcl-xL in femurs (IHC)” value is given as “No change”; the “expression levels of Gli1 in femurs (IHC)” value is “significantly suppressed”. In addition, the TGI in [11] was 100%.
For `Cc1ncsc1-c1ccc([C@H](C)NC(=O)[C@@H]2C[C@@H](O)CN2C(=O)[C@@H](NC(=O)CCCCCC(=O)N2CCN(CC[C@H](CSc3ccccc3)Nc3ccc(S(=O)(=O)NC(=O)c4ccc(N5CCN(CC6=C(c7ccc(Cl)cc7)CCC(C)(C)C6)CC5)cc4)cc3S(=O)(=O)C(F)(F)F)CC2)C(C)(C)C)cc1` [DT2216], in series [10], the body size entry is on record as “smaller body sizes”; the “femur length (Micro-CT, in words)” value is reported as “obvious shortening of the femur”; the “levels of Bcl-xL in femurs (IHC)” value is reported as “reduced”; the “expression levels of Gli1 in femurs (IHC)” value is reported as “significantly suppressed”. Besides, the “rate of weight growth” value in series [10] (young mice treated from P12 to P16) is listed as “decelerated the rate of weight growth”.
For the compound `CC(C)C[C@@H](C=O)NC(=O)[C@H](CC(C)C)NC(=O)[C@H](CC(C)C)NC(=O)OCc1ccccc1` [MG132, reference compound] (Cbz-Leu-Leu-Leu-aldehyde), in [3], the “effect of pretreatment on SIAIS361034-induced Bcl-xL degradation” value is given as “obviously abolished SIAIS361034-induced Bcl-xL degradation”. Besides, in series [4], the “effect of pretreatment on Gli-luciferase activity suppressed by SIAIS361034” value is “abolished the suppressed Gli-luciferase activity”.
Regarding `Cc1sc2c(c1C)C(c1ccc(Cl)cc1)=N[C@@H](CC(=O)OC(C)(C)C)c1nnc(C)n1-2` [JQ1, reference compound], the Gli1 protein level entry in [12] is recorded as “reduced Gli1 protein”.
Consider `Nc1cccc2c1C(=O)N(C1CCC(=O)NC1=O)C2=O` (centres unmarked) [Pomalidomide, reference compound], for which the “effect of pretreatment on SIAIS361034-induced Bcl-xL degradation” value in [3] is “obviously abolished SIAIS361034-induced Bcl-xL degradation”. Also, the “effect of pretreatment on Gli-luciferase activity suppressed by SIAIS361034” value in [4] was “abolished the suppressed Gli-luciferase activity”.
